US4059694A, “Cardiotonic agent” (The University of Hawaii, priority 1976, dated 1977)
Where two headings read alike, the source gives them in different places.

Key:
blood pressure = assay: Effect on blood pressure; conditions: in vivo
isolated heart [1] = assay: Cardiotonic effect in the isolated heart, cat; type: cell-based
Description: (§1) This cardiac stimulation is observed in animals by measuring the in vitro contractile effect on isolated heart muscle and in vivo in anesthetized dogs fitted with a cardiac strain gauge.

mice = assay: Acute toxicity (LD50) in mice, i.p.; type: in vivo
Method: (§2) Anthopleurin-A can be further characterized by its pharmacological characteristics. […] The LD50 in mice (i.p.) is about 0.2-0.3 mg./kg.

isolated heart [2] = assay: Cardiotonic effect in the isolated heart, rat; type: cell-based
Description: as §1

isolated vascular muscle = assay: Mechanical effect on the isolated vascular muscle; type: cell-based
atria = assay: Inotropic effect on atria under stressful conditions; type: cell-based; conditions: severe temperature stress, anoxia and low Ca^++ concentrations
[3] = Stability of anthopleurin-A on storage and in solution; type: physicochemical
[4] = test system: catechol-O-methyltransferase; assay: Enzyme inhibition, catechol-O-methyltransferase; type: biochemical; conditions: 3 × 10^-8 M
Isoelectric focusing = type: physicochemical; conditions: doubly purified material
Description: For the purpose of obtaining electrophoretic and amino acid analysis the anthopleurin-A obtained in Example 1 was rechromatographed on CM Sephadex C-25, Sephadex G-50 and G-10 according to the process set forth in Example 1, Steps c, d and e, respectively. The doubly purified material was subject to electrophoretic analysis using commercially available pre-cast 12% acrylamide gels and matched buffer systems obtained from Bio.Rad Laboratories, 32nd and Griffin, Richmond, California.
Isoelectric focusing gives the isoelectric point at a pH = 8.2. Disc gel electrophoresis with 12% polyacrylamide gel at pH 3.6 gave an Rf value of 0.46 versus methyl green tracking dye. […] Sodium dodecyl sulfate (SDS) disc gel electrophoresis using a 10% gel indicated a m.w. of about 4,700 after incubation with dithioerythritol, using RNase A and pancreatic trypsin inhibitor (PTI) for comparison. The molecular weight is so low that these values are only approximate. AP-A was determined to be a peptide on the basis of positive ninhydrin spots obtained when a hydrolysate of AP-A was chromatographed.

[5] = test system: cyclic 3', 5'-nucleotide phosphodiesterase; assay: Enzyme inhibition, cyclic 3', 5'-nucleotide phosphodiesterase; type: biochemical; conditions: 3 × 10^-8 M
in situ heart [6] = assay: Cardiotonic effect in the in situ heart, dog; type: in vivo
Description: as §1

in situ heart [7] = assay: Cardiotonic effect in the in situ heart, cat; type: in vivo
[8] = test system: isolated guinea pig atria; assay: Positive inotropic effect on isolated guinea pig atria; type: cell-based
Method: as §2

Solubility in water = type: physicochemical; conditions: deionized water
Na, K-ATPase = assay: Enzyme inhibition, Na, K-ATPase; type: biochemical; conditions: 3 × 10^-8 M
isolated heart [9] = assay: Cardiotonic effect in the isolated heart, guinea pig; type: cell-based
Description: as §1

[10] = Dependence of drug action and toxicity on external Ca++ and K+, compared with ouabain
isolated heart [11] = assay: Cardiotonic effect in the isolated heart, dog; type: cell-based
Description: as §1

isolated heart [12] = assay: Cardiotonic effect in the isolated heart, rabbit; type: cell-based
Description: as §1

heart rate = assay: Chronotropic effect (heart rate)
monoamine oxidase = assay: Enzyme inhibition, monoamine oxidase; type: biochemical; conditions: 3 × 10^-8 M

anthopleurin-A
effect on blood pressure (blood pressure): negligible effect | effect on blood pressure (blood pressure; listed as AP-A): does not have any demonstrable effect | cardiotonic effect in the isolated heart (isolated heart [1]): effective cardiotonic agent | LD50 (mice): 0.2 to 0.3 mg/kg | cardiotonic effect in the isolated heart (isolated heart [2]): effective cardiotonic agent | mechanical effect on the isolated vascular muscle / vascular smooth muscle (isolated vascular muscle): no demonostrable mechanical effect | mechanical effect on the isolated vascular muscle / vascular smooth muscle (isolated vascular muscle; listed as AP-A): does not have any demonstrable effect | inotropic effect on atria under stress (atria): positive inotropic effect | time stable in solution ([3]; as fraction G, 20.5° C., 10^-7 M solutions, pH 4.55-7.80): at least 24 hours | loss of cardiotonic activity ([3]; as fraction G, pH above 11): about 90% | storage stability ([3]; kept at -20° C. for a year as lyophilized fraction C or lyophilized fraction G): no signs of deterioration | stability versus pH ([3]; neutral and lower pH values): relatively stable | inhibition of catechol-O-methyltransferase [4]: none of the following enzymes is inhibited | isoelectric point (Isoelectric focusing): 8.2 pH | inhibition of cyclic 3', 5'-nucleotide phosphodiesterase [5]: none of the following enzymes is inhibited | cardiotonic effect in the in situ heart (in situ heart [6]): effective cardiotonic agent | cardiotonic effect in the in situ heart (in situ heart [7]): effective cardiotonic agent | ED50, positive inotropic effect ([8]; isolated guinea pig atria): 1.1 nM | potency relative to ouabain in positive inotropic effect ([8]; times as potent as ouabain): 200-1000 x | solubility (Solubility in water): very soluble | inhibition of Na, K-ATPase (Na, K-ATPase): none of the following enzymes is inhibited | cardiotonic effect in the isolated heart (isolated heart [9]): effective cardiotonic agent | effect of lowered external K^+ on drug toxicity [10]: does not alter drug toxicity | sensitivity to Ca^++ concentration [10]: not nearly as sensitive | cardiotonic effect in the isolated heart (isolated heart [11]): effective cardiotonic agent | cardiotonic effect in the isolated heart (isolated heart [12]): effective cardiotonic agent | chronotropic effect / effect on heart rate (heart rate): does not show any chronotropic effect | chronotropic effect / effect on heart rate (heart rate; listed as AP-A): does not have any demonstrable effect | inhibition of monoamine oxidase (monoamine oxidase): none of the following enzymes is inhibited
